Data as given in US4080471A, “Use of substituted isopropylaminopropanols for inducing inotropic effects of the human heart” (priority 1976, dated 1978).

Columns and labels:
[1] = test system: heart; test: Effect on heart chronotropy and inotropy of a conscious dog; details: for Enddiastolic volume / Stroke volume / Mean arterial blood pressure / Peak aortic flow / Mean ejection rate / Max. dF/dt: change i.v. at heart frequency +10 beats/min, interpolated, paced; for Enddiastolic volume: calculated from left ventricle diameter; for Stroke volume: methyl scopolamine pretreated; for Mean ejection rate: stroke volume / ejection time; for side effects: I and II 10 and 20 μg/kg; for Max. dF/dt: maximum flow acceleration in aorta
Excerpt: During anesthesia a catheter was introduced in the aorta, an electromagnetic flow probe was placed around the ascending aorta, and induction coils were placed diametrically on the inside of the left ventricle. The experiments were started about 2 weeks after the incision, when the dog had recovered completely.
When the dog was resting, the arterial blood pressure, the flow in the aorta, the maximum flow acceleration in the aorta (maximum dF/dt), heart frequency, the diameter of the left ventricle, and ECG were registered. The effects of compounds I and II were registered at 10, 20, and 30 minutes after administration. […] The compounds were given intravenously in the following doses. […] In order to eliminate vagal influence on the heart the dog was pretreated with methyl scopolamine 0.012 mg/kg bodyweight intramuscularily 20 minutes before the administration of the compounds. From the data giving the diameter of the left ventricle, the end diastolic volume was calculated according to E. W. Hawthorne. Mean ejection rate (ml/sec.) was calculated by dividing the stroke volume with the ejection time. […] The values given are the percentage changes after administration when the heart frequency has increased 10 beats per minute, values interpolated. […] In order to compare the inotropic effects of ouabain with those of the other compounds, the heart was stimulated in these experiments by electric pacing to a frequency which was 10 beats/minute above that registered before administration.
In order to investigate the absorption and duration of the effect, compounds I and II were given orally in an amount of 100 μg/kg bodyweight.

[2] = test system: beta-receptors of the heart; test: Beta-adrenergic (chronotropic, heart frequency) effects on anesthetized cat pretreated with reserpine; type: in vivo
Description: (§1) Chronotropic (heart frequency) and vasodilatating effects:
(§2) When the cats had been anaesthetized with Mebumal® 30 mg/kg bodyweight i.p., an artificial air respiration was started. The two vagus nerves were cut and the blood passing through a femoral artery was fed via a catheter and a pump back to the distal part of the vessel. Parallelly, a pressure transducer was connected by which the perfusion pressure was registered. At a perfusion with a constant flow, the perfusion pressure is directly proportional to the peripheral resistance of the vascular bed of the hind limb. Blood circulation in the foot was interrupted with a ligature. Heart frequency was registered with a cardiotachometer triggered by the ECG. The substances were administered intravenously in increasing doses and the dose-response curves of the heart frequency and the vasodilatation were constructed.
(§3) Further, the dose ratios (ED50 for vasodilatation/ED50 for heart frequency) are calculated. A dose ratio >1 indicates a heart selective effect.

[3] = biological target: T1, beta-receptors of the heart (Felis catus, UniProt Q9TST6); test: as above; type: in vivo; details: for potency relative to isoprenaline, chronotropic effect: isoprenaline = 1, cat i.v.; for ED50: iv, reserpinized anesthetized cat, i.v., estimated dose giving 50% of maximal effect, read-out: ED50 Heart Frequency
T1 construct: Heart frequency was registered with a cardiotachometer triggered by the ECG; from tissue; host or cells: heart of the anaesthetized cat in vivo (reserpine-pretreated, vagotomized)
T1 sequence (Q9TST6 whole entry): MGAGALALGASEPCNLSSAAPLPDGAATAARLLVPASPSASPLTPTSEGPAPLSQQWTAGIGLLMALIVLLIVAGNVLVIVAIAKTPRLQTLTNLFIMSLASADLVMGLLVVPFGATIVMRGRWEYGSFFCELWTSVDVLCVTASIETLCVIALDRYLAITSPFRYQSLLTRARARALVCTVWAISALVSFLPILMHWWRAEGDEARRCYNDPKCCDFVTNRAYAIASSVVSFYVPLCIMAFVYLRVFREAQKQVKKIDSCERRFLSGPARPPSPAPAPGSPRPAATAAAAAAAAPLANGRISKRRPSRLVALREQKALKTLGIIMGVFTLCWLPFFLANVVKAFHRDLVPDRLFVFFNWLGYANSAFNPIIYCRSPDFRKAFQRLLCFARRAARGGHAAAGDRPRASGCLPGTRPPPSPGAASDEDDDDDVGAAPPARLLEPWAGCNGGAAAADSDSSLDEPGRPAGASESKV
Description: as §1, §2, §3

[4] = biological target: T2, beta-receptors of the blood vessels (Felis catus, UniProt Q9TST5); test: Vasodilatating effect (hind limb perfusion pressure) on anesthetized cat pretreated with reserpine; type: in vivo; details: iv; reserpinized anesthetized cat, i.v.; estimated dose giving 50% of maximal effect; read-out: ED50 Vasodilation
T2 construct: from tissue; host or cells: hind-limb vascular bed of the anaesthetized cat in vivo (constant-flow perfusion, reserpine-pretreated)
T2 sequence (Q9TST5 whole entry, the tested form may be a part): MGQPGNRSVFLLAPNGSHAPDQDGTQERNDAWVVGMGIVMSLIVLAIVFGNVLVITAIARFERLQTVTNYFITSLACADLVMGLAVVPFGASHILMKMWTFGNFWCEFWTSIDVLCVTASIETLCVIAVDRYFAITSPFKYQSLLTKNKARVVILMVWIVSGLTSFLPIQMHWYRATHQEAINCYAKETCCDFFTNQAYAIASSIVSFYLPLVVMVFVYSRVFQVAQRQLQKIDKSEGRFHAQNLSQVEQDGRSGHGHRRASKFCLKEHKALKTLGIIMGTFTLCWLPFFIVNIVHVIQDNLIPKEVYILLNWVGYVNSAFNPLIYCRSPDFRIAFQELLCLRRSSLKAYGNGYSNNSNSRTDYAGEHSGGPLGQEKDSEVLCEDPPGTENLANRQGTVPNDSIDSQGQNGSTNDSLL
Description: as §1, §2, §3

[5] = test system: heart; test: Repetitive ventricular response (RVR) / spontaneous arrhythmia in the anesthetized dog; type: in vivo; details: 40 μg/kg bodyweight
Excerpt: (§4) Effects of Compound I and Ouabain On the Heart Contractility and Rhythmicity of the Anesthetized Dog
(§5) The object of the test was to compare compound I and oubain administered alone and in combination with each other to study the inotropic effect (maximum dP/dt in the left ventricle) and a possibly arrhythmic effect. The latter included an investigation of the ability of the compounds to cause repetitive ventricular response (RVR) when the heart was electrically stimulated via an electrode on the ventricle at the electrically vulnerable phase at the end of the T-wave. Klein et al. (M. Klein, N. S. Nejad, B. Lown, F. Hagemeijer and I. Blair, Circulation Research, 29, 635 (1971)) have shown that digitalis caused RVR at a dose which was about 70% of the dose giving spontaneous ventricular arrhythmias.
(§6) The dog was anesthetized with Mebumal® 30 mg/kg bodyweight i.v. Artificial respiration was applied. The sinus-node was electrocoagulated and the heart frequency was kept constant at 180 beats/minute in each test by electrical pacing of the auricle. Mean arterial blood pressure was registered from the carotis artery. ECG was registered during the test. Further, the pressure in the left ventricle was registered via a catheter inserted through the apex and connected to a pressure transducer. The intraventricular pressure curve was derivated to obtain maximum dP/dt which is a measure of the contractile force of the heart.
(§7) The test was started with a series of control registrations, whereupon the compounds were administered 3 times by infusion during five minutes and with an interval of 50 minutes between each infusion.
(§8) In the experiment with compound I only, the compound was administered in two doses of 10 μg/kg bodyweight and then one dose of 20 μg/kg bodyweight. Ouabain was given in 3 consecutive doses of 20 μg/kg bodyweight. In the combination test ouabain was first given in a dose of 20 μg/kg bodyweight followed by two doses of compound I of 10 and 20 μg/kg bodyweight, respectively.

[6] = test system: heart; test: Effect on heart contractility (maximum dP/dt) of the anesthetized dog; type: in vivo
Excerpt: as §4, §5, §6, §7, §8

[7] = test system: heart; test: Ventricular arrhythmia in dogs after two-stage ligation of the left anterior coronary artery (third day post infarction); type: in vivo, dog; details: 1-norepinephrine 20 μg/kg/min infusion, 120 minutes
Description: Harris, A. S. Delayed Development of Ventricular Ectopic Rhythms following Coronary Occlusion, Cir. l, p 1318, (1950) described a method of two-stage ligation of the left anterior coronary artery in the dog. This method produces a multifocal ventricular arrhythmia that generally remains persistent on the first post ligation day (day 1-24 hours post infarct). The arrhythmia slowly disappears, and by the third post-ligation day the animal has essentially a normal sinus rhythm.
Maling, H. M. and Moran, N. C., Ventricular Arrhythmias Induced by Sympathominetic Amines in Unanesthetized Dogs Following Coronary Artery Occlussion, Cir.
METHODS, MATERIALS AND EXPERIMENTAL DESIGN
Seventeen adult female beagle dogs were used. Their ages ranged from one to three years. These animals were divided into two groups.
The first group consisted of 12 dogs and served as a control group. All animals were subjected to a two-stage ligation of the left anterior coronary artery. On the first post operative day these twelve animals were given various experimental antiarrhythmic agents as part of a routine testing procedure. It should be noted that, due to the nature of these agents, there would be no test drug or only trace amounts of test drug in the blood on day 3, and these amounts would cause little or no change on the outcome of a third day test. It should also be noted that all twelve of these animals has at least 85% ventricular ectopic beats on the morning after surgery in order to be accepted for testing.
On the third day post infarction the dogs were suspended in a standing position in a canvas sling. No anesthesia or sedation was used. ECGs were recorded as well as blood pressure. After a control period, an infusion of 20 μg/kg min. of 1-norepinephrine was begun using a Harvard infusion/withdrawal pump. This infusion lasted 120 minutes.
These five animals were all subjected to a two stage ligation of the anterior descending coronary artery. On day 1 and day 2 each dog was suspended in a canvas sling in the standing position and ECG, blood pressure, and other physiologic measurements were taken. […]

[8] = conscious dog, ouabain 30 μg/kg i.v.
[9] = dose ratio >1 indicates a heart selective effect
[10] = 20 minutes after administration, ouabain versus compound I
[11] = anesthetized dog, i.v. infusion

Structure (SMILES): CC(C)NCC(O)COc1ccc(OC(=O)C(C)C)cc1 (centres unmarked) [II, 1-isopropylamino-3-(p-isobutyryloxyphenoxy)-propanol-2]
- time of maximum effect, oral ([1]; 100 μg/kg bodyweight orally): 30 min
- Enddiastolic volume ([1]; ouabain 30 μg/kg i.v.): -8%
- Stroke volume ([1]; ouabain 30 μg/kg i.v.): 5%
- Mean arterial blood pressure ([1]; ouabain 30 μg/kg i.v.): 0 mm Hg
- Peak aortic flow ([1]; ouabain 30 μg/kg i.v.): 19%
- Mean ejection rate ([1]; ouabain 30 μg/kg i.v.): 11%
- side effects [1, 8]: No side effect was observed
- Max. dF/dt ([1]; ouabain 30 μg/kg i.v.): 34%
- oral effect (in words) ([1]; oral, 100 μg/kg bodyweight): comparable with those obtained after intravenous administration of 20 μg/kg bodyweight
- positive inotropic effect compared with ouabain (in words) ([1]; versus relatively high dose of ouabain): comparable to the effect of the relatively high dose of ouabain
- Selectivity: ED50 Vasodilatation / ED50 Heart Frequency [2, 9]: > 100
- potency relative to isoprenaline, chronotropic effect [3]: about 1/100
- ED50 [3]: 0.006 mg/kg
- ED50 [4]: > 1 mg/kg

Structure (SMILES): CC(C)NCC(O)COc1ccc(OC(=O)c2ccccc2)cc1 (centres unmarked) [III, 1-isopropylamino-3-(p-benzoyloxyphenoxy)-propanol-2]
- Selectivity: ED50 Vasodilatation / ED50 Heart Frequency [2, 9]: > 100
- potency relative to isoprenaline, chronotropic effect [3]: about 1/100
- ED50 [3]: 0.01 mg/kg
- ED50 [4]: > 1 mg/kg

Structure (SMILES): CC(C)NCC(O)COc1ccc(OC(=O)C(C)(C)C)cc1 (centres unmarked) [IV, 1-isopropylamino-3-(p-pivaloyloxyphenoxy)-propanol-2]
- Selectivity: ED50 Vasodilatation / ED50 Heart Frequency ([2]; in vivo): > 15
- ED50 [3]: 0.06 mg/kg
- ED50 [4]: > 1 mg/kg

Structure (SMILES): CC(C)NCC(O)c1ccc(O)c(O)c1 (centres unmarked) [Isoprenaline, reference compound]
- Enddiastolic volume ([1]; ouabain 30 μg/kg i.v.): -2%
- Mean arterial blood pressure ([1]; ouabain 30 μg/kg i.v.): -10 mm Hg
- Peak aortic flow ([1]; ouabain 30 μg/kg i.v.): 19%
- mean blood pressure (in words) ([1]; conscious dog, infusion): decreased the mean blood pressure
- contractility / inotropic effect in conscious dog (in words) ([1]; i.v.): increased the contractility less than compounds I and II

Structure (SMILES): C[C@@H]1O[C@@H](O[C@H]2C[C@@H](O)[C@]3(CO)[C@H]4[C@H](O)C[C@]5(C)[C@@H](C6=CC(=O)OC6)CC[C@]5(O)[C@@H]4CC[C@]3(O)C2)[C@H](O)[C@H](O)[C@H]1O [Ouabain, reference compound]
- Enddiastolic volume ([1]; ouabain 30 μg/kg i.v.): -2%
- Stroke volume ([1]; ouabain 30 μg/kg i.v.): 5%
- Mean arterial blood pressure ([1]; ouabain 30 μg/kg i.v.): 10 mm Hg
- Peak aortic flow ([1]; ouabain 30 μg/kg i.v.): 12%
- Mean ejection rate ([1]; ouabain 30 μg/kg i.v.): 10%
- heart frequency (in words) [1, 8]: expected decrease of the heart frequency
- side effects [1, 8]: vomiting
- Max. dF/dt ([1]; ouabain 30 μg/kg i.v.): 30%
- time of maximum response after i.v. administration ([1]; ouabain 30 μg/kg i.v.): about 50 minutes
- experiments with RVR [5]: more than 50%
- increase of aortic blood pressure ([6]; 20 minutes after administration): about 10 mm Hg
- doses giving approximately the same level of maximum dP/dt (lower pair) [6, 10]: ~20 μg/kg bodyweight
- doses giving corresponding effect on maximum dP/dt (higher pair) [6, 10]: 40 μg/kg bodyweight
- effect on maximum dP/dt (in words) [6, 11]: increased maximum dP/dt
- onset of effect on maximum dP/dt [6, 11]: within a minute
- reduction of effect on maximum dP/dt after 50 minutes [6, 11]: only partly reduced after 50 minutes
- time to maximal effect on maximum dP/dt [6, 11]: about 20 minutes

Structure (SMILES): NC[C@H](O)c1ccc(O)c(O)c1 [norepinephrine, reference compound]
- duration of substantially high incidence of ectopic activity [7]: at least 90 minutes
